Broadly, the inhibition is how much of the control response was suppressed.

Where only a bound is given, the exact number is not on record here.

The values below come from patent publication US10329309B2, “3-(3H-imidazo[4,5-B]pyridin-2-yl)-1H-pyrazolo[4,3-B]pyridines and therapeutic uses thereof” (Samumed, LLC, priority 2015, dated 2019).

What all share (type): cell-based
One experiment concerns SW480 colon cancer cells. Nature of the experiment: Cell viability assay (CellTiter-Blue), four days. Particulars: Homo sapiens, 96 h; for EC50: CellTiter-Blue cell viability; for inhibition at 10 µM: read-out: percent inhibition at 10 μM (given for EC50 of >10 μM). The gist of the method:
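Resazurin reduction (Ex 560/Em 590 nm, ~3 h reagent incubation) served as the viability read-out after SW480 cells were treated for four days at 37 °C. Doses ran from 10 μM down to 0.0045 μM in eight 1:3 steps. Curves fitted non-linearly for EC50, else % inhibition at 10 μM reported.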

Experiment [1] concerns Wnt activity (Sp5-Luc reporter, SW480 colon carcinoma cells). Nature of the experiment: Screening assay for Wnt activity: Sp5-Luc reporter gene assay in SW480 cells. Particulars: Homo sapiens, overnight incubation, 10-point dose-response from 10 μM. The gist of the method:
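Luminescence (BrightGlo) read after overnight 37 °C exposure of Sp5-Luc SW480 reporter cells, 4,000/well in 1% FBS, to compound dosed 1:3 over 10 points from 10 μM with 0.1% DMSO. Values normalized to DMSO-only cells, fitted with variable-slope four-parameter model; where EC50 exceeds 10 μM, % inhibition at 10 μM reported.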

For experiment [2], the system named is primary human mesenchymal stem cells (hMSCs). Kind of experiment: Induction of chondrogenesis in primary human mesenchymal stem cells (nodule imaging, Rhodamine B/Nile Red). As to conditions: hMSC chondrogenesis; for Emax: TGF-β3 as positive control, read-out: Max. Activity as % TGF-β3 activity; for EC50: concentration required to induce 50% levels of chondrogenesis vs TGF-β3, read-out: Conc (nM) of 50% TGF-β3 activity. The procedure, abridged: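 hMSCs (passage 3–6) in incomplete chondrogenic induction medium were dosed at 2700–10 nM (96-well, 6-point) or 5000–2.2 nM (384-well, 8-point), 0.03% DMSO final, for 6 days at 37° C. Fixed nodules stained with Rhodamine B/Nile Red were imaged; nodule area normalized to DMSO wells gave EC50, maximum activity and dose at maximum, with TGF-β3 (10 ng/mL) as positive control.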

For `CC(C)Nc1cncc(-c2ccc3[nH]nc(-c4nc5c(-c6cc(F)cc(NCCN(C)C)c6)ccnc5[nH]4)c3n2)c1` [Compound 460, N^1-(3-fluoro-5-(2-(5-(5-(isopropylamino)pyridin-3-yl)-1H-pyrazolo[4,3-b]pyridin-3-yl)-3H-imidazo[4,5-b]pyridin-7-yl)phenyl)-N^2,N^2-dimethylethane-1,2-diamine], the figures for the EC50 (in the experiment with SW480 colon cancer cells; in experiment [1]; in experiment [2]) were 695 nM, 1180 nM and 30 nM, respectively. Further, the Emax in experiment [2] is 63%.
`CC(C)CC(=O)Nc1cncc(-c2ccc3[nH]nc(-c4nc5c(-c6cccc(F)c6)ccnc5[nH]4)c3n2)c1` [Compound 2, N-(5-(3-(7-(3-fluorophenyl)-3H-imidazo[4,5-b]pyridin-2-yl)-1H-pyrazolo [4,3-b]pyridin-5-yl)pyridin-3-yl)-3-methylbutanamide]: the EC50 was found to be 400 nM with SW480 colon cancer cells, 495 nM in experiment [1] and 21 nM in experiment [2]. Also, the Emax in experiment [2] is 56%.
On the same counts, the results for `Fc1cccc(-c2ccnc3[nH]c(-c4n[nH]c5ccc(-c6cnccn6)nc45)nc23)c1` [Compound 520, 3-(7-(3-fluorophenyl)-3H-imidazo[4,5-b]pyridin-2-yl)-5-(pyrazin-2-yl)-1H-pyrazolo[4,3-b]pyridine] are 2040 nM, 3620 nM, 2 nM and 63%.
With `CC(C)(C)C(=O)Nc1cncc(-c2ccc3[nH]nc(-c4nc5c(-c6ccc(Cl)s6)ccnc5[nH]4)c3n2)c1` [Compound 1043, N-(5-(3-(7-(5-chlorothiophen-2-yl)-3H-imidazo[4,5-b]pyridin-2-yl)-1H-pyrazolo [4,3-b]pyridin-5-yl)pyridin-3-yl)pivalamide], in the experiment on SW480 colon cancer cells, the EC50 was more than 10000 nM and the inhibition at 10 µM was found to be 14.5%. In experiment [1], this compound returned an EC50 of 644 nM. In addition, in experiment [2], the Emax was 65% and the EC50 was 30 nM.
For `Cc1ccncc1-c1ccc2[nH]nc(-c3nc4c(-c5cc(F)cc(CNS(C)(=O)=O)c5)ccnc4[nH]3)c2n1` [Compound 481, N-(3-fluoro-5-(2-(5-(4-methylpyridin-3-yl)-1H-pyrazolo[4,3-b]pyridin-3-yl)-3H-imidazo[4,5-b]pyridin-7-yl)benzyl)methanesulfonamide], the EC50 in the experiment on SW480 colon cancer cells is 5570 nM; in experiment [1] it was 1250 nM. The Emax in experiment [2] is 47%.
For the compound `Fc1ccc(-c2ccnc3[nH]c(-c4n[nH]c5ccc(-c6cncc(CN7CCCC7)c6)nc45)nc23)cc1` [Compound 42, 3-(7-(4-fluorophenyl)-3H-imidazo[4,5-b]pyridin-2-yl)-5-(5-(pyrrolidin-1-ylmethyl)pyridin-3-yl)-1H-pyrazolo[4,3-b]pyridine], the figures for the EC50 (with SW480 colon cancer cells; in experiment [1]) were 1080 nM and 3730 nM, respectively. Further, the Emax in experiment [2] stood at 17%.
For the compound `CC(C)Nc1cncc(-c2ccc3[nH]nc(-c4nc5c(-c6ccoc6)ccnc5[nH]4)c3n2)c1` [Compound 320, 5-(3-(7-(furan-3-yl)-3H-imidazo[4,5-b]pyridin-2-yl)-1H-pyrazolo[4,3-b]pyridin-5-yl)-N-isopropylpyridin-3-amine], the EC50 in the experiment with SW480 colon cancer cells was determined as 378 nM; in experiment [1], 341 nM; in experiment [2], 100 nM. For the same compound, in experiment [2], the Emax amounted to 64%.
The like results for `Oc1cncc(-c2ccc3[nH]nc(-c4nc5c(-c6cccc(F)c6)ccnc5[nH]4)c3n2)c1` [Compound 517, 5-(3-(7-(3-fluorophenyl)-3H-imidazo[4,5-b]pyridin-2-yl)-1H-pyrazolo[4,3-b]pyridin-5-yl)pyridin-3-ol] were, in that order, 768 nM, 423 nM, 2 nM and 59%.
On to `O=C(Nc1cncc(-c2ccc3[nH]nc(-c4nc5c(-c6ccc(Cl)s6)ccnc5[nH]4)c3n2)c1)C1CCC1` [Compound 1056, N-(5-(3-(7-(5-chlorothiophen-2-yl)-3H-imidazo[4,5-b]pyridin-2-yl)-1H-pyrazolo [4,3-b]pyridin-5-yl)pyridin-3-yl)cyclobutanecarboxamide], for which the EC50 in the experiment on SW480 colon cancer cells was 109 nM; in experiment [1], 354 nM; in experiment [2], 10 nM. The Emax in experiment [2] was 102%.
Consider `CC(C)CC(=O)Nc1cncc(-c2ccc3[nH]nc(-c4nc5c(-c6ccc(Cl)s6)ccnc5[nH]4)c3n2)c1` [Compound 1037, N-(5-(3-(7-(5-chlorothiophen-2-yl)-3H-imidazo[4,5-b]pyridin-2-yl)-1H-pyrazolo [4,3-b]pyridin-5-yl)pyridin-3-yl)-3-methylbutanamide], for which the EC50 in the experiment on SW480 colon cancer cells came out at 110 nM; in experiment [1], 1490 nM; in experiment [2] it was 10 nM. The Emax in experiment [2] stood at 67%.
Regarding `CN(C)CCOc1cncc(-c2ccc3[nH]nc(-c4nc5c(-c6cccc(F)c6)ccnc5[nH]4)c3n2)c1` [Compound 515, 2-((5-(3-(7-(3-fluorophenyl)-3H-imidazo[4,5-b]pyridin-2-yl)-1H-pyrazolo[4,3-b]pyridin-5-yl)pyridin-3-yl)oxy)-N,N-dimethylethan-1-amine], the EC50 with SW480 colon cancer cells worked out at 1100 nM; in experiment [1], 2840 nM. The Emax in experiment [2] is 45%.
In the case of `Cc1ncc(-c2ccc3[nH]nc(-c4nc5c(-c6cccc(F)c6)ccnc5[nH]4)c3n2)n1C` [Compound 509, 5-(1,2-dimethyl-1H-imidazol-5-yl)-3-(7-(3-fluorophenyl)-3H-imidazo[4,5-b]pyridin-2-yl)-1H-pyrazolo[4,3-b]pyridine], the EC50 with SW480 colon cancer cells was 115 nM; in experiment [1] it was 120 nM; in experiment [2], 10 nM. In addition, the Emax in experiment [2] turned out to be 97%.
Regarding `CN(C)CC(=O)Nc1cncc(-c2ccc3[nH]nc(-c4nc5c(-c6cccc(F)c6)ccnc5[nH]4)c3n2)c1` [Compound 969, 2-(dimethylamino)-N-(5-(3-(7-(3-fluorophenyl)-3H-imidazo[4,5-b]pyridin-2-yl)-1H-pyrazolo[4,3-b]pyridin-5-yl)pyridin-3-yl)acetamide], the figures for the EC50 (in the experiment on SW480 colon cancer cells; in experiment [1]; in experiment [2]) were more than 10000 nM, 4360 nM and 7 nM, respectively. Besides, the inhibition at 10 µM in the experiment with SW480 colon cancer cells is 27.7%. For the same compound, the Emax in experiment [2] stood at 72%.
For the compound `CN(C)Cc1cncc(-c2ccc3[nH]nc(-c4nc5c(-c6cccs6)ccnc5[nH]4)c3n2)c1` [Compound 349, N,N-dimethyl-1-(5-(3-(7-(thiophen-2-yl)-3H-imidazo[4,5-b]pyridin-2-yl)-1H-pyrazolo[4,3-b]pyridin-5-yl)pyridin-3-yl)methanamine], the EC50 in the experiment with SW480 colon cancer cells worked out at 1160 nM; in experiment [1], 3960 nM; in experiment [2], 30 nM. Also, in experiment [2], the Emax came to 108%.
Take `COc1cccc(-c2ccnc3[nH]c(-c4n[nH]c5ccc(-c6cncc(NC(=O)Cc7ccccc7)c6)nc45)nc23)c1` [Compound 1000, N-(5-(3-(7-(3-methoxyphenyl)-3H-imidazo[4,5-b]pyridin-2-yl)-1H-pyrazolo[4,3-b]pyridin-5-yl)pyridin-3-yl)-2-phenylacetamide]: the EC50 in the experiment on SW480 colon cancer cells is 1100 nM; in experiment [1] it was 2800 nM. Moreover, the Emax in experiment [2] amounted to 46%.
Regarding `CC(C)Nc1cncc(-c2ccc3[nH]nc(-c4nc5c(-c6cccnc6)ccnc5[nH]4)c3n2)c1` [Compound 96, N-isopropyl-5-(3-(7-(pyridin-3-yl)-3H-imidazo[4,5-b]pyridin-2-yl)-1H-pyrazolo[4,3-b]pyridin-5-yl)pyridin-3-amine], the EC50 with SW480 colon cancer cells came to 2000 nM; in experiment [1], 1960 nM; in experiment [2], 10 nM. Further, the Emax in experiment [2] was 113%.
As to `COc1cncc(-c2ccc3[nH]nc(-c4nc5c(-c6cccc(F)c6)ccnc5[nH]4)c3n2)c1` [Compound 516, 3-(7-(3-fluorophenyl)-3H-imidazo[4,5-b]pyridin-2-yl)-5-(5-methoxypyridin-3-yl)-1H-pyrazolo[4,3-b]pyridine], the EC50 is 120 nM in the experiment with SW480 colon cancer cells and 338 nM in experiment [1]. The Emax in experiment [2] turned out to be 47%.
In the case of `CCCCC(=O)Nc1cncc(-c2ccc3[nH]nc(-c4nc5c(-c6ccoc6)ccnc5[nH]4)c3n2)c1` [Compound 327, N-(5-(3-(7-(furan-3-yl)-3H-imidazo[4,5-b]pyridin-2-yl)-1H-pyrazolo[4,3-b]pyridin-5-yl)pyridin-3-yl)pentanamide], in the experiment with SW480 colon cancer cells, the EC50 is more than 10000 nM and the inhibition at 10 µM turned out to be 4.9%. The compound also displayed an EC50 in experiment [1] of 803 nM. In experiment [2], the Emax was determined as 83% and the EC50 turned out to be 10 nM.
Consider `CN(C)c1cncc(-c2ccc3[nH]nc(-c4nc5c(-c6cccc(F)c6)ccnc5[nH]4)c3n2)c1` [Compound 7, 5-(3-(7-(3-fluorophenyl)-3H-imidazo[4,5-b]pyridin-2-yl)-1H-pyrazolo[4,3-b]pyridin-5-yl)-N,N-dimethylpyridin-3-amine], for which the EC50 in the experiment with SW480 colon cancer cells is 540 nM; in experiment [1], 929 nM; in experiment [2], 10 nM. The Emax in experiment [2] was determined as 84%.
